# Values quoted from earlier work in US10596120B2, “Pharmaceutical compositions” (Boehringer Ingelheim International GmbH, priority 2011, dated 2020).
# Details: metformin on its own, in the diabetic
compound,measurement,value
CN(C)C(=N)N=C(N)N [metformin],average improvement in the HbA1c value,1.0-1.5%
